The nature of this test: Inhibition of Ras-Raf (unknown origin) protein-protein interaction incubated for 4 hrs by cell based-BRET assay. As to conditions: Homo sapiens. (Bioluminescence resonance energy transfer reports proximity on the nanometre scale.)

The values that follow come from ChEMBL document CHEMBL4610087, “Swinhopeptolides A and B: Cyclic Depsipeptides from the Sponge Theonella swinhoei That Inhibit Ras/Raf Interaction” (J Nat Prod, 2020).

By pIC50 is commonly meant −log10 of the IC50, conventionally taken in molar units. Low values mean a high IC50, high ones a low IC50.

pIC50: −log10 of the molar value.

Consider `C/C=C(\NC(=O)[C@@H](CO)NC(=O)[C@@](C)(O)[C@H](O)/C=C\C(C)=C\[C@H](C)CC)C(=O)N[C@H](C(=O)N[C@H](C(=O)N[C@H]1C(=O)N[C@H](COC)C(=O)NCC(=O)N[C@@H](C)C(=O)N(C)[C@@H]([C@@H](C)O)C(=O)N[C@H]([C@H](OC)c2ccc(O)cc2)C(=O)N2CCC[C@H]2C(=O)O[C@@H]1C(C)C)[C@@H](C)[C@@H](C)C(N)=O)[C@H](C)N`, for which the pIC50 is 5.24.
Under `C/C=C(\NC(=O)[C@@H](CO)NC(=O)/C(C)=C/C=C/C(C)=C/C(C)CC)C(=O)N[C@H](C(=O)N[C@H](C(=O)N[C@H]1C(=O)N[C@H](COC)C(=O)NCC(=O)N[C@@H](C)C(=O)N(C)[C@@H]([C@@H](C)O)C(=O)N[C@H]([C@H](OC)c2ccc(O)cc2)C(=O)N2CCC[C@H]2C(=O)O[C@@H]1C(C)C)[C@@H](C)[C@@H](C)C(N)=O)[C@H](C)N` (some centres not stated) stands 5.07.
